Reference: patent US11793880B2, “Conjugates of quaternized tubulysin compounds” (Seagen Inc., priority 2015, dated 2023)
Where two headings read alike, the source gives them in different places.

Legend:
L428, MDR + HL [1] = system: L428, MDR + HL
Procedure: (§1) In vitro assays. Cells cultured in log-phase growth were seeded for 24 h in 96-well plates containing 150 μL RPMI 1640 supplemented with 20% FBS. Serial dilutions of antibody-drug conjugates in cell culture media were prepared at 4× working concentrations; 50 μL of each dilution was added to the 96-well plates. […] After 96 h, growth inhibition was assessed by CellTiter-Glo® (Promega, Madison, WI) and luminescence was measured on a plate reader.
(§2) In vitro assays—tubulysin ADCs. ADCs were prepared by t Ell reduction of interchain disulfides to reveal 8-conjugatable cysteines/antibody that were alkylated through Michael addition with the maleimide-containing Drug Linker compounds. […] conjugates hearing quaternized tubulysin ethers with and without a PEG12 side-chain were compared to their tubulysin M analogs.
(§3) Several hydrophilic linker constructs incorporating quaternized tubulysin M were prepared and evaluated in vitro; the results are shown in Table 5. The data (IC50 values in ng/mL) indicate that Conjugates prepared from Drug Linker compounds having quaternized tubulysin M linked via a hydrophilic ValGlu dipeptide with (95) or without (91) a PEG12 side chain, or linked via a hydrophilic glucuronide (82) provide ADCs that are equipotent to the ValAla comparator (15).

DEL/BVR, MDR + ALCL = system: DEL/BVR, MDR + ALCL
Procedure: as §1, §2, §3

L540cy, HL [2] = system: L540cy, HL
Procedure: as §1, §2, §3

DEL, ALCL = system: DEL, ALCL
Procedure: as §1, §2, §3

[3] = system: antigen-negative Hep3B hepatocellular carcinoma cells; conditions: Table 5, cAC10 ADCs 8 drugs/mAb, MDPR-Linker-TubM
Procedure: as §1, §3

Karpas299, ALCL [4] = assay: In vitro assays - tubulysin ADCs (cAC10, anti-CD30); assay type: cell-based; conditions: Table 4; cAC10 ADCs DAR 8, 96 h
[5] = system: Karpas299, L540cy, L428, HL60, HL60/RV cell lines; assay: In vitro assays - tubulysin free drugs, statements across the cell line panel; assay type: cell-based; conditions: for potency relative to tubulysin M (7), in words: Table 2 cell lines, 96 hour exposure
Procedure: In vitro assays. Cells cultured in log-phase growth were seeded for 24 h in 96-well plates containing 150 μL RPMI 1640 supplemented with 20% FBS. Serial dilutions of antibody-drug conjugates in cell culture media were prepared at 4× working concentrations; 50 μL of each dilution was added to the 96-well plates. Following addition of ADC, cells were incubated with test articles for 4 d at 37° C. After 96 h, growth inhibition was assessed by CellTiter-Glo® (Promega, Madison, WI) and luminescence was measured on a plate reader. The IC50 value, determined in triplicate, is defined here as the concentration that results in a 50% reduction in cell growth relative to untreated controls.
In vitro assays—tubulysin free drugs. Cells were treated for 96 hours with tubulysin ether analogs (40-42) or tubulysin M (7), then assessed for viability as described in the methods.
The ethyl ether and tubulysin M maintained the highest level of potency in the context of MDR+L428 and HL60/RV cell lines.
The tubulysin ester analogs (133-137) and unsaturated ether analogs (176-179) were tested in vitro for potency relative to tubulysin M (7), following a 96 hour exposure. As shown by IC50 values (nM) of Table 2, Tubulysin esters 133-136 performed comparably to tubulysin M, with similar potencies across of the cell lines.

L428, MDR + HL [6] = assay: In vitro assays - tubulysin free drugs, CellTiter-Glo growth inhibition; assay type: cell-based; conditions: Homo sapiens, L-428, 96 h, free drug
Karpas299, ALCL [7] = assay: as above; assay type: cell-based; conditions: Homo sapiens, KARPAS-299, 96 h, free drug
HL60/RV, MDR + AML = assay: as above; assay type: cell-based; conditions: Homo sapiens, HL-60, 96 h, free drug
HL60, AML = assay: as above; assay type: cell-based; conditions: Homo sapiens, HL-60, 96 h, free drug
L540cy, HL [8] = assay: as above; assay type: cell-based; conditions: L540cy, 96 h, free drug
[9] = Table 5, cAC10 ADCs 8 drugs/mAb, MDPR-Linker-TubM
[10] = Table 4, cAC10 ADCs DAR 8, 96 h

SMILES	IC50, Karpas299, ALCL (Karpas299, ALCL [4]) [ng/mL]	IC50, L428, MDR + HL (L428, MDR + HL [1]; [10]) [ng/mL]	IC50, DEL/BVR, MDR + ALCL (DEL/BVR, MDR + ALCL; [10]) [ng/mL]	IC50, L540cy, HL (L540cy, HL [2]; [10]) [ng/mL]	potency relative to tubulysin M (7), in words [5]	IC50 (L428, MDR + HL [6]; Table 2, 96 hour exposure) [nM]	IC50 (Karpas299, ALCL [7]; Table 2, 96 hour exposure) [nM]	IC50 (HL60/RV, MDR + AML; Table 2, 96 hour exposure) [nM]	IC50 (HL60, AML; Table 2, 96 hour exposure) [nM]	IC50 (L540cy, HL [8]; Table 2, 96 hour exposure) [nM]	also measured
CC[C@H](C)[C@H](NC(=O)[C@H]1CCCC[N+]1(C)Cc1ccc(NC(=O)[C@H](C)NC(=O)[C@@H](NC(=O)[C@H](CN)N2C(=O)C=CC2=O)C(C)C)cc1)C(=O)N(C)[C@H](C[C@@H](OC(C)=O)c1nc(C(=O)N[C@@H](Cc2ccccc2)C[C@H](C)C(=O)O)cs1)C(C)C (stereo partly drawn) [Compound 15, (2R)-2-(((2S,3S)-1-(((1R,3R)-1-acetoxy-1-(4-(((2R,4S)-4-carboxy-1-phenylpentan-2-yl)carbamoyl)thiazol-2-yl)-4-methylpentan-3-yl)(methyl)amino)-3-methyl-1-oxopentan-2-yl)carbamoyl)-1-(4-((S)-2-((S)-2-((S)-3-amino-2-(2,5-dioxo-2,5-dihydro-1H-pyrrol-1-yl)propanamido)-3-methylbutanamido)propanamido)benzyl)-1-methylpiperidin-1-ium]											IC50, L428, MDR + HL (L428, MDR + HL [1]; [9]): 1 ng/mL; IC50, DEL/BVR, MDR + ALCL (DEL/BVR, MDR + ALCL; [9]): 4 ng/mL; IC50, L540cy, HL (L540cy, HL [2]; [9]): 2 ng/mL; IC50, DEL, ALCL (DEL, ALCL; [9]): 0.3 ng/mL; IC50, Hep3B CD30- HCC [3]: >1000 ng/mL
CC[C@H](C)[C@H](NC(=O)[C@H]1CCCC[N+]1(C)Cc1ccc(O[C@@H]2O[C@H](C(=O)O)[C@@H](O)[C@H](O)[C@H]2O)c(NC(=O)CCNC(=O)[C@H](CCCCNC(=O)CCOCCOCCOCCOCCOCCOCCOCCOCCOCCOCCOCCOC)NC(=O)[C@H](CN)N2C(=O)C=CC2=O)c1)C(=O)N(C)[C@H](C[C@@H](OC(C)=O)c1nc(C(=O)N[C@@H](Cc2ccccc2)C[C@H](C)C(=O)O)cs1)C(C)C (stereo partly shown) [Compound 99]	0.3	0.5	2	2							IC50, DEL, ALCL (DEL, ALCL; [10]): 1 ng/mL
CCO[C@H](C[C@H](C(C)C)N(C)C(=O)[C@@H](NC(=O)[C@H]1CCCCN1C)[C@@H](C)CC)c1nc(C(=O)N[C@@H](Cc2ccccc2)C[C@H](C)C(=O)O)cs1 [Compound 41, (2S,4R)-4-(2-((1R,3R)-3-((2S,3S)—N,3-dimethyl-2-((R)-1-methylpiperidine-2-carboxamido)pentanamido)-1-ethoxy-4-methylpentyl)thiazole-4-carboxamido)-2-methyl-5-phenylpentanoic acid]											potency on each of the cell lines, in words ([5]; Table 1 (examples) cell lines, 96 hours): trended more potent; IC50 (L428, MDR + HL [6]; Table 1 (examples), 96 hours): 0.14 nM; IC50 (Karpas299, ALCL [7]; Table 1 (examples), 96 hours): 0.05 nM; IC50 (HL60/RV, MDR + AML; Table 1 (examples), 96 hours): 5 nM; IC50 (HL60, AML; Table 1 (examples), 96 hours): 0.05 nM; IC50 (L540cy, HL [8]; Table 1 (examples)): 0.05 nM
C#CCO[C@H](C[C@H](C(C)C)N(C)C(=O)[C@@H](NC(=O)[C@H]1CCCCN1C)[C@@H](C)CC)c1nc(C(=O)N[C@@H](Cc2ccccc2)C[C@H](C)C(=O)O)cs1 [Compound 178, (2S,4R)-4-(2-((1R,3R)-3-((2S,3S)—N,3-dimethyl-2-((R)-1-methylpiperidine-2-carboxamido)pentanamido)-4-methyl-1-(prop-2-yn-1-yloxy)pentyl)thiazole-4-carboxamido)-2-methyl-5-phenylpentanoic acid]					attenuated in potency	0.41	0.05	27	0.2	0.17	
CCO[C@H](C[C@H](C(C)C)N(C)C(=O)[C@@H](NC(=O)[C@H]1CCCC[N+]1(C)Cc1ccc(O[C@@H]2O[C@H](C(=O)O)[C@@H](O)[C@H](O)[C@H]2O)c(NC(=O)CCNC(=O)[C@H](CCCCNC(=O)CCOCCOCCOCCOCCOCCOCCOCCOCCOCCOCCOCCOC)NC(=O)[C@H](CN)N2C(=O)C=CC2=O)c1)[C@@H](C)CC)c1nc(C(=O)N[C@@H](Cc2ccccc2)C[C@H](C)C(=O)O)cs1 (stereo partly shown) [Compound 66]	1	6	6	5							
CCCO[C@H](C[C@H](C(C)C)N(C)C(=O)[C@@H](NC(=O)[C@H]1CCCC[N+]1(C)Cc1ccc(O[C@@H]2O[C@H](C(=O)O)[C@@H](O)[C@H](O)[C@H]2O)c(NC(=O)CCNC(=O)[C@H](CCCCNC(=O)CCOCCOCCOCCOCCOCCOCCOCCOCCOCCOCCOCCOC)NC(=O)[C@H](CN)N2C(=O)C=CC2=O)c1)[C@@H](C)CC)c1nc(C(=O)N[C@@H](Cc2ccccc2)C[C@H](C)C(=O)O)cs1 (stereo partly shown) [Compound 67]	4	>1000	12	10							
CC[C@H](C)[C@H](NC(=O)[C@H]1CCCC[N+]1(C)Cc1ccc(O[C@@H]2O[C@H](C(=O)O)[C@@H](O)[C@H](O)[C@H]2O)c(NC(=O)CCNC(=O)[C@H](CN)N2C(=O)C=CC2=O)c1)C(=O)N(C)[C@H](C[C@@H](OC)c1nc(C(=O)N[C@@H](Cc2ccccc2)C[C@H](C)C(=O)O)cs1)C(C)C (stereo partly drawn) [Compound 56, (2R)-1-(3-(3-((S)-3-amino-2-(2,5-dioxo-2,5-dihydro-1H-pyrrol-1-yl)propanamido)propanamido)-4-(((2S,3R,4S,5S,6S)-6-carboxy-3,4,5-trihydroxytetrahydro-2H-pyran-2-yl)oxy)benzyl)-2-(((2S,3S)-1-(((1R,3R)-1-(4-(((2R,4S)-4-carboxy-1-phenylpentan-2-yl)carbamoyl)thiazol-2-yl)-1-methoxy-4-methylpentan-3-yl)(methyl)amino)-3-methyl-1-oxopentan-2-yl)carbamoyl)-1-methylpiperidin-1-ium]	3	>1000	20	10							
C=C(C)CO[C@H](C[C@H](C(C)C)N(C)C(=O)[C@@H](NC(=O)[C@H]1CCCCN1C)[C@@H](C)CC)c1nc(C(=O)N[C@@H](Cc2ccccc2)C[C@H](C)C(=O)O)cs1 [Compound 176, (2S,4R)-4-(2-((1R,3R)-3-((2S,3S)—N,3-dimethyl-2-((R)-1-methylpiperidine-2-carboxamido)pentanamido)-4-methyl-1-((2-methylallyl)oxy)pentyl)thiazole-4-carboxamido)-2-methyl-5-phenylpentanoic acid]					comparable potency	0.12	0.12	6	0.07	0.06	
CC[C@H](C)[C@H](NC(=O)[C@H]1CCCCN1C)C(=O)N(C)[C@H](C[C@@H](OCc1ccccc1)c1nc(C(=O)N[C@@H](Cc2ccccc2)C[C@H](C)C(=O)O)cs1)C(C)C [Compound 179, (2S,4R)-4-(2-((1R,3R)-1-(benzyloxy)-3-((2S,3S)—N,3-dimethyl-2-((R)-1-methylpiperidine-2-carboxamido)pentanamido)-4-methylpentyl)thiazole-4-carboxamido)-2-methyl-5-phenylpentanoic acid]					attenuated in potency	0.57	0.08	24	0.4	0.4	
